According to PMC8632988, “Inhibition of SYK and cSrc kinases can protect bone and cartilage in preclinical models of osteoarthritis and rheumatoid arthritis” (Scientific Reports, 2021):

How the values were obtained:
Assay in all cases: Kinase selectivity profile assay
Assay type in all cases: biochemical
NEK3 = biological target: T1, NEK3 (Homo sapiens, UniProt P51956); settings: 500 nM; relative to DMSO; read-out: Residual enzymatic activity
T1 construct: purchased Reaction Biology Corporation
In short: (§1)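 Radiometric kinase assay run by a standard protocol. Unbound phosphate was removed by washing filters in phosphoric acid, and product radioactivity gave percent remaining kinase activity versus DMSO vehicle reactions. Run in duplicate.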

ERBB2/HER2 = biological target: T2, ERBB2/HER2 (Homo sapiens, UniProt P04626); settings: 500 nM; relative to DMSO; read-out: Residual enzymatic activity
T2 construct: purchased Reaction Biology Corporation
In short: as §1

CK2a = biological target: T3, CK2a (Homo sapiens, UniProt P68400); settings: 500 nM; relative to DMSO; read-out: Residual enzymatic activity
T3 construct: purchased Reaction Biology Corporation
In short: as §1

PDGFRa = biological target: T4, PDGFRa (Homo sapiens, UniProt P16234); settings: 500 nM; relative to DMSO; read-out: Residual enzymatic activity
T4 construct: purchased Reaction Biology Corporation (Malvern, PA, USA)
In short: as §1

PKCd = biological target: T5, PKCd (Homo sapiens, UniProt Q05655); settings: 500 nM; relative to DMSO; read-out: Residual enzymatic activity
T5 construct: purchased Reaction Biology Corporation
In short: as §1

ROCK2 = biological target: T6, ROCK2 (Homo sapiens, UniProt O75116); settings: 500 nM; relative to DMSO; read-out: Residual enzymatic activity
T6 construct: purchased Reaction Biology Corporation
In short: as §1

SSTK/TSSK6 = biological target: T7, SSTK/TSSK6 (Homo sapiens, UniProt Q9BXA6); settings: 500 nM; relative to DMSO; read-out: Residual enzymatic activity
T7 construct: purchased Reaction Biology Corporation
In short: as §1

CK1epsilon = biological target: T8, CK1epsilon (Homo sapiens, UniProt P49674); settings: 500 nM; relative to DMSO; read-out: Residual enzymatic activity
T8 construct: purchased Reaction Biology Corporation
In short: as §1

PLK1 = biological target: T9, PLK1 (Homo sapiens, UniProt P53350); settings: 500 nM; relative to DMSO; read-out: Residual enzymatic activity
T9 construct: purchased Reaction Biology Corporation
In short: as §1

MYO3b = biological target: T10, MYO3b (Homo sapiens, UniProt Q8WXR4); settings: 500 nM; relative to DMSO; read-out: Residual enzymatic activity
T10 construct: purchased Reaction Biology Corporation
In short: as §1

STK25/YSK1 = biological target: T11, STK25/YSK1 (Homo sapiens, UniProt O00506); settings: 500 nM; relative to DMSO; read-out: Residual enzymatic activity
T11 construct: purchased Reaction Biology Corporation
In short: as §1

FLT1/VEGFR1 = biological target: T12, FLT1/VEGFR1 (Homo sapiens, UniProt P17948); settings: 500 nM; relative to DMSO; read-out: Residual enzymatic activity
T12 construct: purchased Reaction Biology Corporation
In short: as §1

ALK2/ACVR1 = biological target: T13, ALK2/ACVR1 (Homo sapiens, UniProt Q04771); settings: 500 nM; relative to DMSO; read-out: Residual enzymatic activity
T13 construct: purchased Reaction Biology Corporation
In short: as §1

PBK/TOPK = biological target: T14, PBK/TOPK (Homo sapiens, UniProt Q96KB5); settings: 500 nM; relative to DMSO; read-out: Residual enzymatic activity
T14 construct: purchased Reaction Biology Corporation
In short: as §1

ABL2/ARG = biological target: T15, ABL2/ARG (Homo sapiens, UniProt P42684); settings: 500 nM; relative to DMSO; read-out: Residual enzymatic activity
T15 construct: purchased Reaction Biology Corporation (assay service)
In short: as §1

PKG1b = biological target: T16, PKG1b (Homo sapiens, UniProt Q13976); settings: 500 nM; relative to DMSO; read-out: Residual enzymatic activity
T16 construct: purchased Reaction Biology Corporation
In short: as §1

CAMKK2 = biological target: T17, CAMKK2 (Homo sapiens, UniProt Q96RR4); settings: 500 nM; relative to DMSO; read-out: Residual enzymatic activity
T17 construct: purchased Reaction Biology Corporation
In short: as §1

ULK3 = biological target: T18, ULK3 (Homo sapiens, UniProt Q6PHR2); settings: 500 nM; relative to DMSO; read-out: Residual enzymatic activity
T18 construct: purchased Reaction Biology Corporation
In short: as §1

STK39/STLK3 = biological target: T19, STK39/STLK3 (Homo sapiens, UniProt Q9UEW8); settings: 500 nM; relative to DMSO; read-out: Residual enzymatic activity
T19 construct: purchased Reaction Biology Corporation
In short: as §1

WNK1 = biological target: T20, WNK1 (Homo sapiens, UniProt Q9H4A3); settings: 500 nM; relative to DMSO; read-out: Residual enzymatic activity
T20 construct: purchased Reaction Biology Corporation
In short: as §1

WNK2 = biological target: T21, WNK2 (Homo sapiens, UniProt Q9Y3S1); settings: 500 nM; relative to DMSO; read-out: Residual enzymatic activity
T21 construct: purchased Reaction Biology Corporation
In short: as §1

GLK/MAP4K3 = biological target: T22, GLK/MAP4K3 (Homo sapiens, UniProt Q8IVH8); settings: 500 nM; relative to DMSO; read-out: Residual enzymatic activity
T22 construct: purchased Reaction Biology Corporation
In short: as §1

CDK2/Cyclin A1 = biological target: T23, CDK2/Cyclin A1 (Homo sapiens, UniProt P24941); settings: 500 nM; relative to DMSO; read-out: Residual enzymatic activity
T23 construct: purchased Reaction Biology Corporation
In short: as §1

HIPK1 = biological target: T24, HIPK1 (Homo sapiens, UniProt Q86Z02); settings: 500 nM; relative to DMSO; read-out: Residual enzymatic activity
T24 construct: purchased Reaction Biology Corporation
In short: as §1

MLK2/MAP3K10 = biological target: T25, MLK2/MAP3K10 (Homo sapiens, UniProt Q02779); settings: 500 nM; relative to DMSO; read-out: Residual enzymatic activity
T25 construct: purchased Reaction Biology Corporation (assay service)
In short: as §1

DMPK2 = biological target: T26, DMPK2 (Homo sapiens, UniProt Q6DT37); settings: read-out: Residual enzymatic activity
T26 construct: purchased Reaction Biology Corporation
In short: as §1

ROCK1 = biological target: T27, ROCK1 (Homo sapiens, UniProt Q13464); settings: 500 nM; relative to DMSO; read-out: Residual enzymatic activity
T27 construct: purchased Reaction Biology Corporation
In short: as §1

RSK2 = biological target: T28, RSK2 (Homo sapiens, UniProt P51812); settings: 500 nM; relative to DMSO; read-out: Residual enzymatic activity
T28 construct: purchased Reaction Biology Corporation
In short: as §1

PIM2 = biological target: T29, PIM2 (Homo sapiens, UniProt Q9P1W9); settings: 500 nM; relative to DMSO; read-out: Residual enzymatic activity
T29 construct: purchased Reaction Biology Corporation
In short: as §1

ALK6/BMPR1B = biological target: T30, ALK6/BMPR1B (Homo sapiens, UniProt O00238); settings: 500 nM; relative to DMSO; read-out: Residual enzymatic activity
T30 construct: purchased Reaction Biology Corporation
In short: as §1

TNK1 = biological target: T31, TNK1 (Homo sapiens, UniProt Q13470); settings: 500 nM; relative to DMSO; read-out: Residual enzymatic activity
T31 construct: purchased Reaction Biology Corporation
In short: as §1

PLK3 = biological target: T32, PLK3 (Homo sapiens, UniProt Q9H4B4); settings: 500 nM; relative to DMSO; read-out: Residual enzymatic activity
T32 construct: purchased Reaction Biology Corporation
In short: as §1

MLK1/MAP3K9 = biological target: T33, MLK1/MAP3K9 (Homo sapiens, UniProt P80192); settings: 500 nM; relative to DMSO; read-out: Residual enzymatic activity
T33 construct: purchased Reaction Biology Corporation (assay service)
In short: as §1

ZAP70 = biological target: T34, ZAP70 (Homo sapiens, UniProt P43403); settings: 500 nM; relative to DMSO; read-out: Residual enzymatic activity
T34 construct: purchased Reaction Biology Corporation
In short: as §1

STK38L/NDR2 = biological target: T35, STK38L/NDR2 (Homo sapiens, UniProt Q9Y2H1); settings: 500 nM; relative to DMSO; read-out: Residual enzymatic activity
T35 construct: purchased Reaction Biology Corporation
In short: as §1

MUSK = biological target: T36, MUSK (Homo sapiens, UniProt O15146); settings: 500 nM; relative to DMSO; read-out: Residual enzymatic activity
T36 construct: purchased Reaction Biology Corporation
In short: as §1

TSSK2 = biological target: T37, TSSK2 (Homo sapiens, UniProt Q96PF2); settings: 500 nM; relative to DMSO; read-out: Residual enzymatic activity
T37 construct: purchased Reaction Biology Corporation
In short: as §1

TTBK2 = biological target: T38, TTBK2 (Homo sapiens, UniProt Q6IQ55); settings: 500 nM; relative to DMSO; read-out: Residual enzymatic activity
T38 construct: purchased Reaction Biology Corporation
In short: as §1

LYN = biological target: T39, LYN (Homo sapiens, UniProt P07948); settings: 500 nM; relative to DMSO; read-out: Residual enzymatic activity
T39 construct: purchased Reaction Biology Corporation (assay service)
In short: as §1

T39 sequence (P07948 whole entry): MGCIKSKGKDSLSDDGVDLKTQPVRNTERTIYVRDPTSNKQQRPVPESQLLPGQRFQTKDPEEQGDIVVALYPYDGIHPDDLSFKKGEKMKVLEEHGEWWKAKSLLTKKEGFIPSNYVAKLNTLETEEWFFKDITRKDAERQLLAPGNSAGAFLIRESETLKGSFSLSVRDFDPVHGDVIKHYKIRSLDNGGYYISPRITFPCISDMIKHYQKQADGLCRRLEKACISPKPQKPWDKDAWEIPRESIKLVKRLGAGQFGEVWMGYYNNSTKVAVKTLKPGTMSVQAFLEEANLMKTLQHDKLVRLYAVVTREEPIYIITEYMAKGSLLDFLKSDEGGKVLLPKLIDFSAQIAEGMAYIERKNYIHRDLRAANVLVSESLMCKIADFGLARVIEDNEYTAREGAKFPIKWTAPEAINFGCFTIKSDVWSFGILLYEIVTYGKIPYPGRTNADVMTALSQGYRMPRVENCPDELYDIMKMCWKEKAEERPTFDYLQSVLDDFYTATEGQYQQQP
T1 sequence (P51956 whole entry): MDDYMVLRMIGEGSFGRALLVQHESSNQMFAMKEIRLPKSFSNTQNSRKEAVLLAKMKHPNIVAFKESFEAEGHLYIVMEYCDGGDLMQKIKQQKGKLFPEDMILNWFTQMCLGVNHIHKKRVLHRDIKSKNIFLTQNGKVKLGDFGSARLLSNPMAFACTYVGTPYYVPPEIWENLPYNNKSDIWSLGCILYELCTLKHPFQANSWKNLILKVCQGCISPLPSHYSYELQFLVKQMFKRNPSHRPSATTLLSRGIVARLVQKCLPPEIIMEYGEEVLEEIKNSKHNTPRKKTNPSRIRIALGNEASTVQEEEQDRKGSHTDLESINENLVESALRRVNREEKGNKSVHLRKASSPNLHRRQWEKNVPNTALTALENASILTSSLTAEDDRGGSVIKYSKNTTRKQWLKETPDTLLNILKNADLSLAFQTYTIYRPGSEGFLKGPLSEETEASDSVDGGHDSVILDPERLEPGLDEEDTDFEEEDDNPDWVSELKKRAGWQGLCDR
T37 sequence (Q96PF2 whole entry): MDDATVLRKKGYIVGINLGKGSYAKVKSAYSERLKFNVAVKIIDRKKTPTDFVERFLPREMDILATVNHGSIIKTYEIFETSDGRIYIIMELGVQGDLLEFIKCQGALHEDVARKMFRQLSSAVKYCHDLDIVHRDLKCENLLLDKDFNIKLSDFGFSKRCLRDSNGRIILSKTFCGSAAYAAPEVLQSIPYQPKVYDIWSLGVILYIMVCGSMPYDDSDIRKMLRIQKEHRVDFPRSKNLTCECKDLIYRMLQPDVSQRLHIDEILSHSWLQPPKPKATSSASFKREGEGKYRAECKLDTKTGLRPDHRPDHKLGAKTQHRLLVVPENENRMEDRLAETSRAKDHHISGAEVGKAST
T30 sequence (O00238 14-502): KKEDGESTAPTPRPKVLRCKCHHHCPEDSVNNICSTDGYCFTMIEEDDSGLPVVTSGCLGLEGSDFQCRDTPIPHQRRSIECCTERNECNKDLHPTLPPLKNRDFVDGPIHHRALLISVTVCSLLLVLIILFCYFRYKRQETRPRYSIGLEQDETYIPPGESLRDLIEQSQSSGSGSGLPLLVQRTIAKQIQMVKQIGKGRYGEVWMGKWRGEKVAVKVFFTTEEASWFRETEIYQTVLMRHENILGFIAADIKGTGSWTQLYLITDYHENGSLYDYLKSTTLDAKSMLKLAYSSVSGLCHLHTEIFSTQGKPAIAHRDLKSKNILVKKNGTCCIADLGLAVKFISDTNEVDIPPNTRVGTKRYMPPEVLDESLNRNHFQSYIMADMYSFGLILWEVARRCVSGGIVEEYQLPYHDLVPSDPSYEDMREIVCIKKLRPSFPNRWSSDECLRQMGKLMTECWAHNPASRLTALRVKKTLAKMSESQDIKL
T13 sequence (Q04771 21-509): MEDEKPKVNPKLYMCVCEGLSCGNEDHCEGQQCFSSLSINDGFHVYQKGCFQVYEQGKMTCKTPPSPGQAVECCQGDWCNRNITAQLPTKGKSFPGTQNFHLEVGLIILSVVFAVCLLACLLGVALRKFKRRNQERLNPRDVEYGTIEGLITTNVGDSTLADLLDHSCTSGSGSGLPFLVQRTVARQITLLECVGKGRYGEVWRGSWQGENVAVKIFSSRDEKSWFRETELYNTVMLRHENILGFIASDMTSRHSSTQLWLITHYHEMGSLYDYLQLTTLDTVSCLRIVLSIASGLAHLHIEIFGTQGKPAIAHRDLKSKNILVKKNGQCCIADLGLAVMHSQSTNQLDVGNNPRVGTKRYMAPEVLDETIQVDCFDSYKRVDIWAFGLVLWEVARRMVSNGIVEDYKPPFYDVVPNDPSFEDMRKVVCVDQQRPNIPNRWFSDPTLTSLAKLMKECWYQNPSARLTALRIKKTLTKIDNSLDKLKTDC
T4 sequence (P16234 24-1089): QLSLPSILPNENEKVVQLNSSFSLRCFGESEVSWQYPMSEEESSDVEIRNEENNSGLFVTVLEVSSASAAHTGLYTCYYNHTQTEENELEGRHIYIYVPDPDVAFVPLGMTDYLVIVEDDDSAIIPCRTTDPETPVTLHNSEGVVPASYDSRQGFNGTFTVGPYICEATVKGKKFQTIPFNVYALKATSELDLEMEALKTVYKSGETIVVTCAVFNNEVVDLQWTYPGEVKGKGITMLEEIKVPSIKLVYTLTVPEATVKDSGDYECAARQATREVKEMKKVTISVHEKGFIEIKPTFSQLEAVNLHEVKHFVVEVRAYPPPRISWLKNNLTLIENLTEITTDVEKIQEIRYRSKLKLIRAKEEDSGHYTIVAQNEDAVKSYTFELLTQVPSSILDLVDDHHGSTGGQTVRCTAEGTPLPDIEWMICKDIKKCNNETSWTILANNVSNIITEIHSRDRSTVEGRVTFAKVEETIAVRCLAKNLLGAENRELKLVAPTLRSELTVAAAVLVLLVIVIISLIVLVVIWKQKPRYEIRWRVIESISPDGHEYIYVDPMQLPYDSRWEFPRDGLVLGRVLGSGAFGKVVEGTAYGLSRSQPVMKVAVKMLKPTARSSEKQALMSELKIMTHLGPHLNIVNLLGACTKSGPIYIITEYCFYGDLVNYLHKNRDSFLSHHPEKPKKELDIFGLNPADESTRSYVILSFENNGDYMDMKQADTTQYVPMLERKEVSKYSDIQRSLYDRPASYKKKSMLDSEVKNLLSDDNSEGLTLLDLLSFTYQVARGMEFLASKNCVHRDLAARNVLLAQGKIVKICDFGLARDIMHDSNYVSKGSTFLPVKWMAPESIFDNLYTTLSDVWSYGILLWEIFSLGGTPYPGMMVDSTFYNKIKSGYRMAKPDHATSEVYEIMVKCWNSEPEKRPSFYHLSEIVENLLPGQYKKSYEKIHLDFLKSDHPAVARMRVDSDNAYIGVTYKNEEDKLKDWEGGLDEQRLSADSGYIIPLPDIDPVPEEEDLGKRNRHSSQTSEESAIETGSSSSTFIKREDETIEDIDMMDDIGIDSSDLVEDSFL
T36 sequence (O15146 24-869): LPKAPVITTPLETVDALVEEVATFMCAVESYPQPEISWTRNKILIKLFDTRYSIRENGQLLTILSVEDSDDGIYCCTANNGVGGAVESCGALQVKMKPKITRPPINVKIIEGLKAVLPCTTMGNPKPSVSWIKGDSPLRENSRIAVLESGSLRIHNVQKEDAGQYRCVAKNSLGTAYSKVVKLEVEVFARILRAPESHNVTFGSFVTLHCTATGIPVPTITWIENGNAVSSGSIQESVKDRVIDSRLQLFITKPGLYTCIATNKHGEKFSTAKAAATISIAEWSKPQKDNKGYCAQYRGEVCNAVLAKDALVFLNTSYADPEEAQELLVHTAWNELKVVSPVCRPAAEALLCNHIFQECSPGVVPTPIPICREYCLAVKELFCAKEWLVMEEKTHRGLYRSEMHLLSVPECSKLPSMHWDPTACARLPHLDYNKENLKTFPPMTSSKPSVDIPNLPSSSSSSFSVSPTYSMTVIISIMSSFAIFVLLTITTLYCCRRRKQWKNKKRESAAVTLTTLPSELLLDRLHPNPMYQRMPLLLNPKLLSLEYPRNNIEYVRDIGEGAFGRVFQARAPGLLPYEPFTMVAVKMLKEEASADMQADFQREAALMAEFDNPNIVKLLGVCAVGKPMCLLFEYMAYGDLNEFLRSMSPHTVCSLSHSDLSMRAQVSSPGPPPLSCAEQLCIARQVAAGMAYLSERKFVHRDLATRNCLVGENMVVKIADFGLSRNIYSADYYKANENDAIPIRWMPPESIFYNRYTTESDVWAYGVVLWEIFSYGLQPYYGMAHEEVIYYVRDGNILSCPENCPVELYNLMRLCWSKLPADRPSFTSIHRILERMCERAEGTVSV
T18 sequence (Q6PHR2 whole entry): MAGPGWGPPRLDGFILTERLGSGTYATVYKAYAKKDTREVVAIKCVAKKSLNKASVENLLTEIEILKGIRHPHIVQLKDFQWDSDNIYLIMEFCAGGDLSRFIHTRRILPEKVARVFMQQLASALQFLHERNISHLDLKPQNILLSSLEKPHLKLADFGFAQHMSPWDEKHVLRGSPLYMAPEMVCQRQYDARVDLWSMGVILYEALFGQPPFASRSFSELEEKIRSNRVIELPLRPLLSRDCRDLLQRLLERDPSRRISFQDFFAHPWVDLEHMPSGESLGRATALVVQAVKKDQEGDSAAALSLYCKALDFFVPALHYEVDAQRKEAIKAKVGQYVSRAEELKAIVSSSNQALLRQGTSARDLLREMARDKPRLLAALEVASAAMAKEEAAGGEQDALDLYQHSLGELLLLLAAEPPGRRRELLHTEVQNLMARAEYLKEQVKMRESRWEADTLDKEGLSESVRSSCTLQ
T7 sequence (Q9BXA6 whole entry): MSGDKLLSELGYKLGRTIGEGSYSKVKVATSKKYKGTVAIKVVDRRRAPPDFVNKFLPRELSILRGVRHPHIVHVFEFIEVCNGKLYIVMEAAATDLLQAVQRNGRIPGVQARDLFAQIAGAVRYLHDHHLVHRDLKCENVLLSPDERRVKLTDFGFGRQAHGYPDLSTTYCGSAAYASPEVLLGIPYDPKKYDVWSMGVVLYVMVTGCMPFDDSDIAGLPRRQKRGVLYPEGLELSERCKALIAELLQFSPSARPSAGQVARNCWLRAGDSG

With `COc1cc(Nc2ncc(F)c(Nc3ccc4c(n3)NC(=O)C(C)(C)O4)n2)cc(OC)c1OC` [R406, reference compound] the remaining activity at 0.5 µM (NEK3) was 19.2%, the remaining activity at 0.5 µM (ERBB2/HER2) was 80.5% and the remaining activity at 0.5 µM (CK2a) was 50.8%. It also gave a remaining activity at 0.5 µM (PDGFRa) of 10.5%, a remaining activity at 0.5 µM (PKCd) of 97.7% and a remaining activity at 0.5 µM (ROCK2) of 77.6%. The remaining activity at 0.5 µM (SSTK/TSSK6) was 98.7%, the remaining activity at 0.5 µM (CK1epsilon) was 104% and the remaining activity at 0.5 µM (PLK1) was 60.4%. For the same molecule, the remaining activity at 0.5 µM (MYO3b) was 94.1%, the remaining activity at 0.5 µM (STK25/YSK1) was 90.7% and the remaining activity at 0.5 µM (FLT1/VEGFR1) was 12.4%. For the same molecule, the remaining activity at 0.5 µM (ALK2/ACVR1) was 135%, the remaining activity at 0.5 µM (PBK/TOPK) was 100% and the remaining activity at 0.5 µM (ABL2/ARG) was 34.5%. It also gave a remaining activity at 0.5 µM (PKG1b) of 98.6%, a remaining activity at 0.5 µM (CAMKK2) of 88.8% and a remaining activity at 0.5 µM (ULK3) of 20.3%. It also gave a remaining activity at 0.5 µM (STK39/STLK3) of 107%, a remaining activity at 0.5 µM (WNK1) of 103% and a remaining activity at 0.5 µM (WNK2) of 95.2%. For the same molecule, the remaining activity at 0.5 µM (GLK/MAP4K3) was 65.8%, the remaining activity at 0.5 µM (CDK2/Cyclin A1) was 59.5% and the remaining activity at 0.5 µM (HIPK1) was 90.8%. For the same molecule, the remaining activity at 0.5 µM (MLK2/MAP3K10) was 1.1%, the remaining activity at 0.5 µM (DMPK2) was 57.5% and the remaining activity at 0.5 µM (ROCK1) was 87%. For the same molecule, the remaining activity at 0.5 µM (RSK2) was 56.9%, the remaining activity at 0.5 µM (PIM2) was 95.6% and the remaining activity at 0.5 µM (ALK6/BMPR1B) was 145%. The remaining activity at 0.5 µM (TNK1) was 9.6%, the remaining activity at 0.5 µM (PLK3) was 53.1% and the remaining activity at 0.5 µM (MLK1/MAP3K9) was 6.3%. For the same molecule, the remaining activity at 0.5 µM (ZAP70) was 43.5%, the remaining activity at 0.5 µM (STK38L/NDR2) was 32.1% and the remaining activity at 0.5 µM (MUSK) was 62.1%. The remaining activity at 0.5 µM (TSSK2) was 95.2%, the remaining activity at 0.5 µM (TTBK2) was 95.4% and the remaining activity at 0.5 µM (LYN) was 5.7%.
